Each block holds one compound with its values, some of them ahead of it.
Key:
Type in all cases: physicochemical
[1] = LNP size and polydispersity index (PDI) by dynamic light scattering (DLS)
[2] = LNP Zeta potential measured using a Zetasizer (Malvern); settings: for Zeta potential: hEPO mRNA, N:P 6; for Zeta potential (mV): LNP with hEPO mRNA, N:P ratio 6
[3] = Encapsulation efficiency (EE %) by fluorescence based Ribogreen assay
[4] = Table 9, LNP 50:10:38.5:1.5 mol %, hEPO mRNA, N:P 6
[5] = Table 9, LNP Lipid:DSPC:Cholesterol:DMG-PEG2k 50:10:38.5:1.5 mol %, hEPO mRNA, N:P 6
[6] = Table 9, LNP 50:10:38.5:1.5 mol %
[7] = Table 8, LNP 50:10:38.5:1.5 mol %, hEPO mRNA, N:P 6
[8] = Table 8, LNP Lipid:DSPC:Cholesterol:DMG-PEG2k 50:10:38.5:1.5 mol %, hEPO mRNA, N:P 6
[9] = Table 8, LNP 50:10:38.5:1.5 mol %
[10] = Table 10, LNP with hEPO mRNA, Lipid:DSPC:Cholesterol:DMG-PEG2k 50:10:38.5:1.5 mol %, N:P ratio 6, DLS
[11] = Table 1, LNP lipid:DSPC:Cholesterol:DMG-PEG2k 50:10:38.5:1.5 mol %, hEPO mRNA, N:P 6
[12] = Table 1, LNP lipid:DSPC:Cholesterol:DMG-PEG2k 50:10:38.5:1.5 mol %
[13] = Table 5, LNP 50:10:38.5:1.5 mol %, hEPO mRNA, N:P 6
[14] = Table 5, LNP Lipid:DSPC:Cholesterol:DMG-PEG2k 50:10:38.5:1.5 mol %, hEPO mRNA, N:P 6
[15] = Table 5, LNP 50:10:38.5:1.5 mol %
[16] = Table 3, LNP 50:10:38.5:1.5 mol %, hEPO mRNA, N:P 6
[17] = Table 6, LNP 50:10:38.5:1.5 mol %, hEPO mRNA, N:P 6
[18] = Table 6, LNP 60:0:38.5:1.5 mol %, hEPO mRNA, N:P 6
[19] = Table 6, LNP lipid:DSPC:Cholesterol:DMG-PEG2k 50:10:38.5:1.5 mol %, hEPO mRNA, N:P 6
[20] = Table 6, LNP 50:10:38.5:1.5 mol %
[21] = Table 6, LNP 60:0:38.5:1.5 mol %
[22] = Table 7, LNP 30:10:58.5:1.5 mol %, helper lipid DOPC, hEPO mRNA, N:P 6
[23] = Table 7, LNP 30:10:58.5:1.5 mol %, helper lipid DOPE, hEPO mRNA, N:P 6
[24] = Table 7, LNP 30:10:58.5:1.5 mol %, helper lipid DSPC, hEPO mRNA, N:P 6
[25] = Table 7, LNP 50:10:38.5:1.5 mol %, helper lipid DOPC, hEPO mRNA, N:P 6
[26] = Table 7, LNP 50:10:38.5:1.5 mol %, helper lipid DOPE, hEPO mRNA, N:P 6
[27] = Table 7, LNP 50:10:38.5:1.5 mol %, helper lipid DSPC, hEPO mRNA, N:P 6
[28] = Table 11, LNP with hEPO mRNA, Lipid:DSPC:Cholesterol:DMG-PEG2k 50:10:38.5:1.5 mol % (ALC-0315: 46.3:9.4:42.7:1.6), N:P ratio 6, HEPES/sodium chloride/sucrose buffer, stored at −80C
[29] = Table 11, Lipid:DSPC:Cholesterol:DMG-PEG2k 50:10:38.5:1.5 mol % (ALC-0315: 46.3:9.4:42.7:1.6), HEPES/sodium chloride/sucrose buffer, stored at −80C
[30] = Table 5, LNP 60:0:38.5:1.5 mol %, hEPO mRNA, N:P 6

PDI [1, 4]: 0.216
Size [1, 5]: 76.3 nm
Zeta potential [2, 6]: −14.27 mV
Encapsulation Efficiency % [3, 4]: 98.6%
Compound: CCCCCCCCC(CCCCCC)C(=O)OCCN(CCOC(=O)C(CCCCCC)CCCCCCCC)C(=O)CNCC.Cl (centres unmarked) [Compound 965]

PDI [1, 7]: 0.159
Size [1, 8]: 90.1 nm
Zeta potential [2, 9]: −18.1 mV
Encapsulation Efficiency % [3, 7]: 94.9%
Compound: CCCCCCCCC(CCCCCC)C(=O)OCCN(CCOC(=O)C(CCCCCC)CCCCCCCC)C(=O)CCCN(CC)CCC.Cl (centres unmarked) [Compound 980]

PDI [1, 4]: 0.447
Size [1, 5]: 76.1 nm
Zeta potential [2, 6]: −41.21 mV
Encapsulation Efficiency % [3, 4]: 99.2%
Compound: CCCCCCCCCC(CCCCCCCCC)C(=O)OCCN(CCOC(=O)C(CCCCCCCCC)CCCCCCCCC)C(=O)CN(C)C.Cl [Compound 963]

Compound: CCCCCCCCCC(CCCCCCCCC)C(=O)OCCN(CCOC(=O)C(CCCCCCCCC)CCCCCCCCC)C(=O)CCN(C)CCC [Compound 917g]
PDI [1, 10]: 0.281
Size (nm) [1, 10]: 49.2 nm
Zeta potential (mV) ([2]; Table 10, Lipid:DSPC:Cholesterol:DMG-PEG2k 50:10:38.5:1.5 mol %): −10.2 mV
Encapsulation Efficiency % ([3]; Table 10, LNP with hEPO mRNA, Lipid:DSPC:Cholesterol:DMG-PEG2k 50:10:38.5:1.5 mol %, N:P ratio 6, Ribogreen assay): 93.5%

PDI [1, 11]: 0.058
Size [1, 11]: 77.8 nm
Zeta potential [2, 12]: 6.43 mV
Encapsulation Efficiency % [3, 11]: 95.2%
Compound: CCCCCCCCCC(=O)OCCN(CCOC(=O)CCCCCCCCC)C(=O)C(N)Cc1c[nH]cn1 (centres unmarked) [Compound 128]

PDI [1, 11]: 0.338
Size [1, 11]: 83.3 nm
Zeta potential [2, 12]: −3.45 mV
Encapsulation Efficiency % [3, 11]: 97%
Compound: CCCCCCCCC(CCCCCC)C(=O)OCCN(CCOC(=O)C(CCCCCC)CCCCCCCC)C(=O)C(N)CCCCN (centres unmarked) [Compound 123]

PDI [1, 11]: 0.557
Size [1, 11]: 90.7 nm
Zeta potential [2, 12]: 8.911 mV
Encapsulation Efficiency % [3, 11]: 97.6%
Compound: CCCCCCCCCCCC(=O)OCCN(CCOC(=O)CCCCCCCCCCC)C(=O)C(C)N (centres unmarked) [Compound 109]

PDI [1, 4]: 0.099
Size [1, 5]: 61.4 nm
Zeta potential [2, 6]: −23.35 mV
Encapsulation Efficiency % [3, 4]: 99.8%
Compound: CCCCCCCCC(CCCCCC)C(=O)OCCN(CCOC(=O)C(CCCCCC)CCCCCCCC)C(=O)CN(CC)CCC.Cl (single isomer, unassigned) [Compound 960b]

PDI [1, 13]: 0.13
Size [1, 14]: 77.1 nm
Zeta potential [2, 15]: −4.462 mV
Encapsulation Efficiency % [3, 13]: 97.7%
Compound: CCCCCC(CCCCC)C(=O)OCCN(CCOC(=O)C(CCCCC)CCCCC)C(=O)C(C)N (centres unmarked) [Compound 608]

Size [1, 14]: 98 nm
Zeta potential [2, 15]: −4.452 mV
Encapsulation Efficiency % [3, 13]: 99.8%
Compound: CCCCCCC(CCCC)C(=O)OCCN(CCOC(=O)C(CCCC)CCCCCC)C(=O)C(C)N (centres unmarked) [Compound 609]

PDI [1, 11]: 0.146
Size [1, 11]: 74.2 nm
Zeta potential [2, 12]: −5.059 mV
Encapsulation Efficiency % [3, 11]: 95.1%
Compound: CCCCCCCCC(CCCCCC)C(=O)OCCN(CCOC(=O)C(CCCCCC)CCCCCCCC)C(=O)C(N)CO (centres unmarked) [Compound 130]

PDI [1, 11]: 0.088
Size [1, 11]: 62.6 nm
Zeta potential [2, 12]: 4.394 mV
Encapsulation Efficiency % [3, 11]: 97.9%
Compound: CCCCCCCC/C=C\CCCCCCCC(=O)OCCN(CCOC(=O)CCCCCCC/C=C\CCCCCCCC)C(=O)CN [Compound 101]

Compound: CCCCCCCC/C=C\CCCCCCCC(=O)OCCN(CCOC(=O)CCCCCCC/C=C\CCCCCCCC)C(=O)C(N)Cc1ccccc1 (centres unmarked) [Compound 113]
PDI [1, 11]: 0.126
Size [1, 11]: 79.1 nm
PDI [1, 16]: 0.068
Size ([1]; Table 3, LNP lipid:DSPC:Cholesterol:DMG-PEG2k 50:10:38.5:1.5 mol %, hEPO mRNA, N:P 6): 61.4 nm
Zeta potential [2, 12]: −2.878 mV
Encapsulation Efficiency % [3, 11]: 95.2%
Encapsulation Efficiency % [3, 16]: 99.7%

PDI [1, 4]: 0.254
Size [1, 5]: 72.6 nm
Zeta potential [2, 6]: −12.1 mV
Encapsulation Efficiency % [3, 4]: 99%
Compound: CCCCCCCCC(CCCCCC)C(=O)OCCN(CCOC(=O)C(CCCCCC)CCCCCCCC)C(=O)CN(C)CCO.Cl (centres unmarked) [Compound 960g]

PDI [1, 17]: 0.281
PDI [1, 18]: 0.147
Size [1, 18]: 81.1 nm
Size [1, 19]: 96 nm
Zeta potential [2, 20]: −1.7 mV
Zeta potential [2, 21]: 2.8 mV
Encapsulation Efficiency % [3, 17]: 98.3%
Encapsulation Efficiency % [3, 18]: 99.9%
Compound: CCCCCCCCC(CCCCCC)C(=O)OCCN(CCOC(=O)C(CCCCCC)CCCCCCCC)C(=O)CCCN (centres unmarked) [Compound 804]

PDI [1, 17]: 0.114
PDI [1, 18]: 0.012
Size [1, 18]: 131.4 nm
Size [1, 19]: 96.3 nm
PDI [1, 22]: 0.113
Size [1, 22]: 120.1 nm
PDI [1, 23]: 0.105
Size [1, 23]: 79.1 nm
PDI [1, 24]: 0.033
Size [1, 24]: 93.8 nm
PDI [1, 25]: 0.131
Size [1, 25]: 99.1 nm
PDI [1, 26]: 0.214
Size [1, 26]: 134.5 nm
PDI [1, 27]: 0.13
Size ([1]; Table 7, LNP ionizable lipid:Helper Lipid:Cholesterol:DMG-PEG2k 50:10:38.5:1.5 mol %, helper lipid DSPC, hEPO mRNA, N:P 6): 114.4 nm
Zeta potential [2, 20]: −0.3 mV
Zeta potential [2, 21]: −0.4 mV
Zeta potential ([2]; Table 7, LNP 30:10:58.5:1.5 mol %, helper lipid DOPC): −9.115 mV
Zeta potential ([2]; Table 7, LNP 30:10:58.5:1.5 mol %, helper lipid DOPE): −10.16 mV
Zeta potential ([2]; Table 7, LNP 30:10:58.5:1.5 mol %, helper lipid DSPC): −7.184 mV
Zeta potential ([2]; Table 7, LNP 50:10:38.5:1.5 mol %, helper lipid DOPC): −8.233 mV
Zeta potential ([2]; Table 7, LNP 50:10:38.5:1.5 mol %, helper lipid DOPE): −7.52 mV
Zeta potential ([2]; Table 7, LNP 50:10:38.5:1.5 mol %, helper lipid DSPC): −7.7 mV
Encapsulation Efficiency % [3, 17]: 97%
Encapsulation Efficiency % [3, 18]: 99.2%
Encapsulation Efficiency % [3, 22]: 99.5%
Encapsulation Efficiency % [3, 23]: 99.7%
Encapsulation Efficiency % [3, 24]: 99.6%
Encapsulation Efficiency % [3, 25]: 98.8%
Encapsulation Efficiency % [3, 26]: 99.5%
Encapsulation Efficiency % [3, 27]: 98.8%
Compound: CCCCCCCCC(CCCCCC)C(=O)OCCN(CCOC(=O)C(CCCCCC)CCCCCCCC)C(=O)CCN(C)C (centres unmarked) [Compound 808]

PDI [1, 7]: 0.248
Size [1, 8]: 103.7 nm
Zeta potential [2, 9]: −18.3 mV
Encapsulation Efficiency % [3, 7]: 99.9%
Compound: CCCCCCCCC(CCCCCC)C(=O)OCCN(CCOC(=O)C(CCCCCC)CCCCCCCC)C(=O)CCCN(C)CCC.Cl (centres unmarked) [Compound 938]

PDI [1, 28]: 0.059
Size (nm) [1, 28]: 71.7 nm
Zeta potential (mV) [2, 29]: −4.1 mV
Encapsulation Efficiency % [3, 28]: 94.9%
Compound: CCCCCCCCC(CCCCCC)C(=O)OCCN(CCOC(=O)C(CCCCCC)CCCCCCCC)C(=O)C(C)CCN(C)CCC.Cl (centres unmarked) [Compound 987i]

PDI [1, 13]: 0.24
PDI [1, 30]: 0.244
Size [1, 30]: 55.6 nm
Size [1, 14]: 155.4 nm
Zeta potential [2, 15]: −5.841 mV
Zeta potential ([2]; Table 5, LNP 60:0:38.5:1.5 mol %): −5.555 mV
Encapsulation Efficiency % [3, 13]: 99.3%
Encapsulation Efficiency % [3, 30]: 98.4%
Compound: CCCCCCCC(CCCCCCC)C(=O)OCCN(CCOC(=O)C(CCCCCCC)CCCCCCC)C(=O)C(C)N (centres unmarked) [Compound 611]

PDI [1, 7]: 0.136
Size [1, 8]: 144 nm
Zeta potential [2, 9]: −9.2 mV
Encapsulation Efficiency % [3, 7]: 99.9%
Compound: CCCCCCCCC(CCCCCC)C(=O)OCCN(CCOC(=O)C(CCCCCC)CCCCCCCC)C(=O)CCCN(CC)CC.Cl (centres unmarked) [Compound 937]

PDI [1, 28]: 0.107
Size (nm) [1, 28]: 65.7 nm
Zeta potential (mV) [2, 29]: −3.8 mV
Encapsulation Efficiency % [3, 28]: 77.8%
Compound: CCCCCCCCC(CCCCCC)C(=O)OCCN(CCOC(=O)C(CCCCCC)CCCCCCCC)C(=O)C(C)CCN1CCOCC1.Cl (centres unmarked) [Compound 987n]

— patent US20250268826A1, “IONIZABLE LIPIDOID COMPOSITIONS AND THERAPEUTIC USES THEREOF” (Flagship Pioneering Innovations VII, LLC, priority 2023, published 2025)
